Results on 28 molecules are retold here after ChEMBL document CHEMBL2390956, “Design, synthesis and evaluation of flavonoid derivatives as potential multifunctional acetylcholinesterase inhibitors against Alzheimer's disease” (Bioorg Med Chem Lett, 2013).

One assay has as its target Cholinesterase (Equus caballus, UniProt P81908).
A further assay concerns the target Acetylcholinesterase (Electrophorus electricus, UniProt O42275).
For assay [1], the target named is Amyloid-beta precursor protein (Homo sapiens) (UniProt P05067). The experiment in a line: Inhibition of amyloid beta (1 to 42) (unknown origin) aggregation at 20 uM by thioflavin T based fluorometric assay.
Sequence of Amyloid-beta precursor protein (Homo sapiens) (P05067 whole entry): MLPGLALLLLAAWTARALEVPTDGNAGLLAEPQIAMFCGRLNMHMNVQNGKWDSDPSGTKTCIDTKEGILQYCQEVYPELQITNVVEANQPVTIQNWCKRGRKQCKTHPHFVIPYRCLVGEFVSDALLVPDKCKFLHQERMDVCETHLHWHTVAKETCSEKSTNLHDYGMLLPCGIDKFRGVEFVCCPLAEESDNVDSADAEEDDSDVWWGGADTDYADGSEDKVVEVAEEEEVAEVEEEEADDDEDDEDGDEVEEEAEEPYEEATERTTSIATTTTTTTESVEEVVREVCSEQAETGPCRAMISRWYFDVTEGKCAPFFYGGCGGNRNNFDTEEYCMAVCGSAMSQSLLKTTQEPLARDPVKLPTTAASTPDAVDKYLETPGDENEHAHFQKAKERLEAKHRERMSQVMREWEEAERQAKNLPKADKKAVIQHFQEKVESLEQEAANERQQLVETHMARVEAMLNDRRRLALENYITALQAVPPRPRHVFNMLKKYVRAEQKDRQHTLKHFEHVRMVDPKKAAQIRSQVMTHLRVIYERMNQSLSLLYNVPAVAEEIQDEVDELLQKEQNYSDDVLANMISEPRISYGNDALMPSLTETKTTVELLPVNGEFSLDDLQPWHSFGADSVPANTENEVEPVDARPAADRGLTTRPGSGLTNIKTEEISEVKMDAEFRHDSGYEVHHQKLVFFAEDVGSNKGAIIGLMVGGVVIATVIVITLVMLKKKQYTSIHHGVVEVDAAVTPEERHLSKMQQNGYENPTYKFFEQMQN
In assay [2] the target is Acetylcholinesterase (Homo sapiens) (UniProt P22303). The experiment in a line: Mixed inhibition of AChE (unknown origin) using ATC as substrate assessed as acetylcholine hydrolysis incubated 15 mins prior to substrate addition by Lineweaver-Burk plot analysis.
Sequence of Acetylcholinesterase (Homo sapiens) (P22303 whole entry): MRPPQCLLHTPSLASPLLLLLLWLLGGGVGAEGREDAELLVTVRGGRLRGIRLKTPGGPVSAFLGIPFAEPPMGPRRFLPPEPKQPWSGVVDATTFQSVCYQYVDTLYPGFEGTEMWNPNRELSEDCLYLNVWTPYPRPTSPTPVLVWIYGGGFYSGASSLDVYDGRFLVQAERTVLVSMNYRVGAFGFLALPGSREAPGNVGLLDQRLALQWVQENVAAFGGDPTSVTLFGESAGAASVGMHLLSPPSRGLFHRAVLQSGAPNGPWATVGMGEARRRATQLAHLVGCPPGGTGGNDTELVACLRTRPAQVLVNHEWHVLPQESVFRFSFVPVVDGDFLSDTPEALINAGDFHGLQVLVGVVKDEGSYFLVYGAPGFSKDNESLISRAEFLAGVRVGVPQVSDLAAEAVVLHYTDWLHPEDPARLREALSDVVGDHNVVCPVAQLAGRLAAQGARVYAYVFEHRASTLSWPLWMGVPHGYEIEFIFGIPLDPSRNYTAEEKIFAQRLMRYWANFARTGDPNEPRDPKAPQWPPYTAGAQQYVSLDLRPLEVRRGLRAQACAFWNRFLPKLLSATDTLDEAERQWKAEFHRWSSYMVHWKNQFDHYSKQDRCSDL
Assay [3] is described as follows: Metal chelating activity of the compound assessed as formation of iron complex at 35 uM by UV-vis spectrometry. It counts as functional.
In assay [4] the target is Acetylcholinesterase (Electrophorus electricus) (UniProt O42275). The experiment in a line: Ratio of galanthamine IC50 to compound IC50 for electric eel AChE.
Sequence of Acetylcholinesterase (Electrophorus electricus) (O42275 24-633 limits assumed): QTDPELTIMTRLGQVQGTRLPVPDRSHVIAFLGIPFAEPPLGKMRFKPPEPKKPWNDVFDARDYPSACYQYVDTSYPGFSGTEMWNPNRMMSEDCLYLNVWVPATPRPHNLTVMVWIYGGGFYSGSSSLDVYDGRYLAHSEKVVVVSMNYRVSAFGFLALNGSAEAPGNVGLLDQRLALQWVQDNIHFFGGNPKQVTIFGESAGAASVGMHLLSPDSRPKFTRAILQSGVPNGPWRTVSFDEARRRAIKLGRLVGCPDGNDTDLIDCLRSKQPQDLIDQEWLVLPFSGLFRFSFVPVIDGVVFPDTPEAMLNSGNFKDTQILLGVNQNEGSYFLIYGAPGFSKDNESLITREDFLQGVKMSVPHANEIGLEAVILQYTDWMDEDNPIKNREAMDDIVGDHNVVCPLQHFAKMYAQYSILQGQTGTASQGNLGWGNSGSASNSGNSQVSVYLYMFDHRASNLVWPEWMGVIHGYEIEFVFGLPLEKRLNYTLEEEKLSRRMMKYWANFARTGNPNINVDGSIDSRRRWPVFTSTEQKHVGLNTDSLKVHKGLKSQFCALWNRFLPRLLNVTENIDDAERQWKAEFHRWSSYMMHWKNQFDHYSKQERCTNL
Assay [5] has the same target. The experiment in a line: Ratio of tacrine IC50 to compound IC50 for electric eel AChE.
Assay [6] is described as follows: Metal chelating activity of the compound assessed as formation of copper complex at 35 uM by UV-vis spectrometry. The format is functional.

Calls of active or inactive are those of the source. The calls are words filed in the database; no cut-off is given here. Some results are limits rather than exact numbers.

Sequence of Acetylcholinesterase (O42275 whole entry): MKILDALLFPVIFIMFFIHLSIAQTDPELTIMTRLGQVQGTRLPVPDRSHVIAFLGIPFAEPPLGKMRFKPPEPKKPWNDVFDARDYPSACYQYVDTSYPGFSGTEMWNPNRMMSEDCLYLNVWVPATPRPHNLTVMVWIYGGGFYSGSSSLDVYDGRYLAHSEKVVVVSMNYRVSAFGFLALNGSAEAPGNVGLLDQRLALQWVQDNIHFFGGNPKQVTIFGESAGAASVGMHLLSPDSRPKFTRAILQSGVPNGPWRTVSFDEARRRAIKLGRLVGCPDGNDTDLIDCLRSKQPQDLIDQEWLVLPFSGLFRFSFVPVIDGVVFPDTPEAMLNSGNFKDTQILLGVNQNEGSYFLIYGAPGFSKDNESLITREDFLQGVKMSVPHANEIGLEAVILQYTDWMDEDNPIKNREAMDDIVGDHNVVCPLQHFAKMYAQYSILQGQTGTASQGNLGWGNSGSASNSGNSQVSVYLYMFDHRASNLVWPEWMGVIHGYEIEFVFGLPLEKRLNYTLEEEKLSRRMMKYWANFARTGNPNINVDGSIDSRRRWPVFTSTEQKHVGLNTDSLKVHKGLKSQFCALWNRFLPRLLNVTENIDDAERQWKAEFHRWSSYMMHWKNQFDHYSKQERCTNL
Sequence of Cholinesterase (P81908 whole entry): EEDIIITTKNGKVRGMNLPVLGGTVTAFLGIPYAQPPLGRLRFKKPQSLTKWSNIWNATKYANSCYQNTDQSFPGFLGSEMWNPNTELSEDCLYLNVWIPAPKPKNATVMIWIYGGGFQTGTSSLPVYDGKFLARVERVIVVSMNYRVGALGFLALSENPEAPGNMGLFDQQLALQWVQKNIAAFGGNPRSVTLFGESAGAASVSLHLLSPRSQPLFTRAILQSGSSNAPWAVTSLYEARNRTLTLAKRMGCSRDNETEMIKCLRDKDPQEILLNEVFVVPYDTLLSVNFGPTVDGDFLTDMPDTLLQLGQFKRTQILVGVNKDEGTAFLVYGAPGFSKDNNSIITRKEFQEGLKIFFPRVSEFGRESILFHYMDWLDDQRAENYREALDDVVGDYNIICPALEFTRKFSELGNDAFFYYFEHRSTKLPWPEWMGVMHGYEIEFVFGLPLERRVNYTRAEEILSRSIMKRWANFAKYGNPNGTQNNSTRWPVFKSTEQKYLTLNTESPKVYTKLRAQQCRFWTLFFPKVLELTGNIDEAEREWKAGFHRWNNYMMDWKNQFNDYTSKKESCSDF

For `Cc1c(OCCCCN(C)C)ccc2c(=O)cc(-c3ccccc3)oc12`, the half-inhibitory concentration (IC50) at Cholinesterase was more than 100 µM; at Acetylcholinesterase, 0.328 µM. Besides, the inhibition in assay [1] is 34.3%.
For `Cc1c(OCCCN2CCCCC2C)ccc2c(=O)cc(-c3ccccc3)oc12` (stereo unspecified), in that order: 5.84 µM, 0.59 µM and 41.7%.
Regarding `CCN(CC)CCCCCOc1ccc2c(=O)cc(-c3ccccc3)oc2c1C`, the 50% inhibitory concentration (IC50) against Cholinesterase is more than 100 µM; on Acetylcholinesterase, 0.264 µM. For the same molecule, the inhibition in assay [1] worked out at 40.9%.
For `Cc1c(OCCCCCCN2CCC(O)CC2)ccc2c(=O)cc(-c3ccccc3)oc12`, in that order: 3.93 µM, 3.15 µM and 39%.
As for `Cc1c(O)ccc2c(=O)cc(-c3ccccc3)oc12`, the 50% inhibitory concentration (IC50) against Cholinesterase was more than 100 µM; at Acetylcholinesterase, 87.1 µM.
As to `Cc1c(OCCCCCN2CCCCC2)ccc2c(=O)cc(-c3ccccc3)oc12`, the half-maximal inhibitory concentration (IC50) at Cholinesterase was 1.41 µM; on Acetylcholinesterase, 0.329 µM. Further, in assay [1], the inhibition came to 41.7%.
The matching figures for `Cc1c(OCCCCCCN2CCCCC2C)ccc2c(=O)cc(-c3ccccc3)oc12` (stereo unspecified): 3.74 µM, 1.89 µM and 43.2%.
`Cc1c(OCCCCCN2CCCC2)ccc2c(=O)cc(-c3ccccc3)oc12`: the 50% inhibitory concentration (IC50) against Cholinesterase was found to be 1.91 µM; against Acetylcholinesterase, 0.243 µM. In addition, the inhibition in assay [1] turned out to be 39.3%.
For `Cc1c(OCCCCN2CCCCC2)ccc2c(=O)cc(-c3ccccc3)oc12`, in that order: more than 100 µM, 0.234 µM and 37.5%.
`COC(=O)[C@@H]1CCCN1CCCCOc1ccc2c(=O)cc(-c3ccccc3)oc2c1C`: the IC50 at Cholinesterase worked out at 3.82 µM; against Acetylcholinesterase it was 25.3 µM.
As to `CCN(CC)CCCCOc1ccc2c(=O)cc(-c3ccccc3)oc2c1C`, the concentration for half-maximal inhibition (IC50) at Cholinesterase was found to be 4.82 µM; against Acetylcholinesterase, 0.13 µM. Moreover, the inhibition result in assay [2] was “Active”. Further, the outcome in assay [3] and in assay [6] was Active. In assay [1], this molecule had an inhibition of 39%. In addition, the Ratio IC50 in assay [4] was found to be 20; in assay [5], 2.
Take `Cc1c(OCCCN2CCC(O)CC2)ccc2c(=O)cc(-c3ccccc3)oc12`: the IC50 was determined as 4.12 µM against Cholinesterase and 2.94 µM against Acetylcholinesterase. Besides, the inhibition in assay [1] was 21.4%.
The matching figures for `Cc1c(OCCCCCN2CCOCC2)ccc2c(=O)cc(-c3ccccc3)oc12`: more than 100 µM, 8.63 µM and 24.6%.
For `Cc1c(OCCCCN2CCCCC2C)ccc2c(=O)cc(-c3ccccc3)oc12` (stereo unspecified), in that order: more than 100 µM, 0.225 µM and 37.3%.
With `Cc1c(OCCN2CCCC2)ccc2c(=O)cc(-c3ccccc3)oc12`, the IC50 at Cholinesterase turned out to be 2.71 µM; on Acetylcholinesterase, 2.04 µM. Also, in assay [1], the inhibition was found to be 42%.
The matching figures for `Cc1c(OCCCCCN2CCC(O)CC2)ccc2c(=O)cc(-c3ccccc3)oc12`: 4.85 µM, 0.604 µM and 37.4%.
`Cc1c(OCCCCCN(C)C)ccc2c(=O)cc(-c3ccccc3)oc12`: the IC50 on Cholinesterase amounted to 2.54 µM; on Acetylcholinesterase, 0.21 µM. Also, the inhibition in assay [1] was 37.9%.
As to `Cc1c(OCCCN2CCCC2)ccc2c(=O)cc(-c3ccccc3)oc12`, the IC50 against Cholinesterase worked out at 2.78 µM; against Acetylcholinesterase, 0.952 µM. Besides, the inhibition in assay [1] was determined as 27.1%.
With `Cc1c(OCCCCCN2CCN(C)CC2)ccc2c(=O)cc(-c3ccccc3)oc12`, the concentration for half-maximal inhibition (IC50) against Cholinesterase was determined as 4.87 µM; against Acetylcholinesterase, 1.87 µM. In assay [1], this molecule showed an inhibition of 39.9%.
For `Cc1c(OCCCCN2CCOCC2)ccc2c(=O)cc(-c3ccccc3)oc12`, in that order: more than 100 µM, 2.88 µM and 20.4%.
The matching figures for `Cc1c(OCCN2CCCCC2C)ccc2c(=O)cc(-c3ccccc3)oc12` (stereo unspecified): more than 100 µM, 2.1 µM and 30.5%.
For `Cc1c(OCCCCCN2CCCCC2C)ccc2c(=O)cc(-c3ccccc3)oc12` (stereo unspecified), in that order: 2.77 µM, 0.216 µM and 36.7%.
For `Cc1c(OCCN2CCC(O)CC2)ccc2c(=O)cc(-c3ccccc3)oc12`, the IC50 against Cholinesterase was 3.21 µM; on Acetylcholinesterase, 1.83 µM. The inhibition in assay [1] was 26.9%.
As for `Cc1c(OCCCCCCN2CCCC2)ccc2c(=O)cc(-c3ccccc3)oc12`, the 50% inhibitory concentration (IC50) is 3.28 µM at Cholinesterase and 0.764 µM against Acetylcholinesterase. Besides, in assay [1], the inhibition was 38.1%.
As for `Cc1c(OCCCCN2CCN(C)CC2)ccc2c(=O)cc(-c3ccccc3)oc12`, the IC50 on Cholinesterase came out at 5.75 µM; on Acetylcholinesterase, 1.66 µM. The inhibition in assay [1] stood at 31.1%.
For `Cc1c(OCCCCN2CCC(O)CC2)ccc2c(=O)cc(-c3ccccc3)oc12`, in that order: more than 100 µM, 0.607 µM and 22.1%.
Consider `Cc1c(OCCCCN2CCCC2)ccc2c(=O)cc(-c3ccccc3)oc12`, for which the figures for the IC50 against Cholinesterase and against Acetylcholinesterase were 5.7 µM and 0.238 µM, respectively. The molecule further registered an inhibition in assay [1] of 21.8%.
Regarding `COC(=O)[C@@H]1CCCN1CCCCCOc1ccc2c(=O)cc(-c3ccccc3)oc2c1C`, the IC50 was found to be 3.93 µM against Cholinesterase and 19.6 µM against Acetylcholinesterase.
